Measurements published in patent US20030186370A1, “5ht3 receptors of nematodes, polynucleotide molecules encoding same, and antagonists thereof” (priority 2000, published 2003).
Read-outs that look alike come from different tables or passages of the source.

How the values were obtained:
C. elegans [1] = test: Effects of 5-HT receptor class-selective agonists and antagonists on C. elegans pharyngeal pumping and locomotion on agar; type: in vivo
Description: For the experiments described below C. elegans of the Bristol N2 strain (Brenner, S. 1974. The genetics of Caenorhabditis elegans, Genetics, 77: 71-94) were cultured at room temperature on HMS174 E. coli bacteria (Campbell J. L. et al. 1978. Genetic recombination and complementation between bacteriophage T7 and cloned fragments of T77 DNA. Proc. Natl. Acad. Sci. USA. 75: 2276-2280) on NGM agar (Sulston, J. and Hodgkin, J. 1988, “Methods” in The nematode Caenorhabditis elegans. W. B. Wood pp 587-606. Cold Spring Harbor Laboratory Press, New York) unless otherwise described.
Studies were therefore conducted wherein selective 5-HT1, 5-HT2 and 5-HT3 agonists were applied at known concentrations to agar on which C. elegans was held in the absence of food and the effects on movement and pharyngeal pumping monitored over a period of 2-3 hours.
Studies were also conducted to investigate the ability of selective vertebrate 5-HT3 antagonists to inhibit the 5-HT-induced increase in pharyngeal pumping.

C. elegans [2] = test: Chronic exposure protocol: nematode growth and survival on NGM agar containing the compound; type: in vivo; conditions: for mortality at 5 µM / mortality at 10 µM / mortality at 20 µM / mortality at 40 µM / mortality at 81 µM / mortality at 162 µM / mortality at 325 µM: Caenorhabditis elegans
Description: Because the pharyngeal pump is essential for nematode feeding and the maintenance of the nematode “hydrostatic skeleton” [Brownlee, D. J. A. et al. 1997, supra] and a previously established target organ for nematicides, an investigation was conducted to assess whether the 5-HT3-selective antagonists would function as nematicidal agents in a chronic exposure protocol.
C. elegans nematodes were cultured on the HMS/174 strain of E. coli [Campbell, J. L. et al. 1978. Genetic recombination and complementation between bacteriophage T7 and cloned fragments of T7 DNA. Proc. Natl. Acad. Sci. USA. 75: 2276-2280] on NGM agar [Sulston, J. and Hodgkin, J. 1988, supra] in the wells of six well tissue culture cluster, 2 ml agar per well. MDL72222 was incorporated into the agar at the specified concentrations using ≦65 μl of acetone as a carrier. A control well contained 65 μl of acetone only. Between five and 11 L1 stage C. elegans were transferred to each well and the wells were incubated at 22° C. for up to four weeks. All concentrations >10 μM MDL 72222 caused developmental delays. Concentrations of MDL 72222 down to 80 μM caused 40 % mortality within three days. […] The bacterial food therefore remained uneaten for prolonged periods.
Concentrations of MDL72222 down to 20 μM caused 90-100% mortality within 21 days and concentrations as low as 10 μM and 5 μM caused 50-100% mortality at 21 days. At the lowest concentrations of MDL72222, nematode death was delayed until after the bacterial food had been consumed. […] The experiment shown in Table 3 was repeated with essentially identical results.

Helicoverpa armigera = test: Growth of neonate H. armigera on surface-contaminated artificial diet; type: in vivo; conditions: for Mean weight of larva (mg) at 7 days: 24 larvae; for activity at 100 µM / activity at 1000 µM: Helicoverpa armigera, 168 h, read-out: % of control weight
Myzus persicae = test: Green Peach Aphid artificial diet sachet bioassay, growth and survival; type: in vivo; conditions: for Mean number of surviving aphids (out of 5) / Mean relative growth rate of survivors: after 5 days
Description: The effects of MDL 72222 on Green Peach Aphid (Myzus persicae) was also tested. The bioassay involved testing compounds at 3 different concentrations (1 mM, 100 μM, 10 μM) in an artificial diet. Compounds that were not water-soluble were forced into solution using a non-toxic surfactant. For each compound, each concentration was tested in 10 replicate assays. In each replicate, 5 aphids were allowed to feed on the test solution in a Parafilm® sachet for a period of 5 days. Survivorship and aphid growth rate were compared among the test concentrations and a control containing only the artificial diet with surfactant.

C. elegans [3] = test: Dose-response of serotonin-stimulated pharyngeal pumping of C. elegans; type: in vivo; conditions: for IC50: in the presence of 0.325 mM serotonin (FIG. 2), read-out: IC50, inhibition of serotonin-stimulated pharyngeal pumping
Description: FIG. 1 provides dose-response curves for serotonin action on pharyngeal pumping. […] Any minor differences between the curves of FIGS. 1a and 1b are accounted for by the differences in experimental detail and the fact that in the microscopical assay, the rate of pumping is counted over a period of 1-3 minutes, whilst in the plate-based assays the fluorescence intensity represents the accumulation of ingested material over 60 minutes.
At this concentration of 5-HT, the IC50 for MDL72222 is approximately 30 μM, i.e. 10×lower than the EC50 for 5-HT.

[4] = system: snail 5-HT3-like ion channel; conditions: Green et al. 1996; read-out: IC50 on the snail 5-HT3-like ion channel / 5-HT gated conductance; cited from earlier work
[5] = Table 3 experiment, 0.325 mM antagonist plus 0.325 mM serotonin
[6] = Table 3 experiment, 0.325 mM, nothing else added
[7] = 72 h, read-out: % Mortality - 3 days
[8] = 504 h, read-out: % Mortality - 21 days
[9] = 0.1 mM by surface contamination of diet
[10] = 1.0 mM by surface contamination of diet
[11] = Table 2 experiment, 0.325 mM (each), nothing else added

SMILES: Cc1[nH]c2ccc(O)cc2c1CCN.Cl [2-methyl-5-hydroxytryptamine hydrochloride]
- Effect on locomotion (C. elegans [1]; agonist 3 mM): Locomotion normal,
- Pumping rate (min-1) mean ± s.d. (C. elegans [1]; agonist 3 mM in agar, absence of food, 2-3 hours): 130 ± 27 min⁻¹

SMILES: CN1[C@@H]2CC[C@H]1C[C@@H](OC(=O)c1cc(Cl)cc(Cl)c1)C2 [MDL 72222]
- Pumping rate (min-1) mean ± s.d. (C. elegans [1]; [5]): 2 ± 2 min⁻¹
- Pumping rate (min-1) mean ± s.d. (C. elegans [1]; [6]): 1 ± 1 min⁻¹
- Time to consumption of all bacteria (C. elegans [2]; 5 μM in agar): 7 days
- Time to consumption of all bacteria (C. elegans [2]; 10 μM in agar): 8 days
- Time to consumption of all bacteria (C. elegans [2]; 20 μM in agar): 9 days
- Time to consumption of all bacteria (C. elegans [2]; 40 μM in agar): 10 days
- Time to consumption of all bacteria (C. elegans [2]; 81 μM in agar): 16 days
- Time to consumption of all bacteria (C. elegans [2]; 162 μM in agar): >28 days
- Time to consumption of all bacteria (C. elegans [2]; 325 μM in agar): >28 days
- mortality at 5 µM (C. elegans [2]; [7]): 0%
- mortality at 10 µM (C. elegans [2]; [7]): 0%
- mortality at 20 µM (C. elegans [2]; [7]): 0%
- mortality at 40 µM (C. elegans [2]; [7]): 0%
- mortality at 81 µM (C. elegans [2]; [7]): 42%
- mortality at 162 µM (C. elegans [2]; [7]): 64%
- mortality at 325 µM (C. elegans [2]; [7]): 55%
- mortality at 5 µM (C. elegans [2]; [8]): 100%
- mortality at 10 µM (C. elegans [2]; [8]): > 50%
- mortality at 20 µM (C. elegans [2]; [8]): 100%
- mortality at 40 µM (C. elegans [2]; [8]): > 90%
- mortality at 81 µM (C. elegans [2]; [8]): > 90%
- mortality at 162 µM (C. elegans [2]; [8]): > 90%
- mortality at 325 µM (C. elegans [2]; [8]): 100%
- Concentrations that caused developmental delays (C. elegans [2]; L1 stage seeded, 22° C.): > 10 µM
- Mean weight of larva (mg) at 7 days (Helicoverpa armigera; [9]): 51 mg
- Mean weight of larva (mg) at 7 days (Helicoverpa armigera; [10]): 54 mg
- activity at 100 µM (Helicoverpa armigera; 0.1 mM by surface contamination of diet, 7 days): 70%
- activity at 1000 µM (Helicoverpa armigera; 1.0 mM by surface contamination of diet, 7 days): 75%
- Mean number of surviving aphids (out of 5) (Myzus persicae; 0.01 mM in artificial diet): 4.6
- Mean relative growth rate of survivors (Myzus persicae; 0.01 mM in artificial diet): 0.0339
- Mean number of surviving aphids (out of 5) (Myzus persicae; 0.1 mM in artificial diet): 3.4
- Mean relative growth rate of survivors (Myzus persicae; 0.1 mM in artificial diet): 0.0200
- Mean number of surviving aphids (out of 5) (Myzus persicae; 1 mM in artificial diet): 0.9
- Mean relative growth rate of survivors (Myzus persicae; 1 mM in artificial diet): 0.0383
- IC50 (C. elegans [3]; Caenorhabditis elegans): ~25 µM
- IC50 (C. elegans [3]): ~30 µM

SMILES: Cl.Clc1cccc(N2CCNCC2)c1 [m-CPP hydrochloride]
- Effect on locomotion (C. elegans [1]; agonist 1 mM (each, if combined)): Locomotion inhibited
- Pumping rate (min-1) mean ± s.d. (C. elegans [1]; agonist 1 mM (each, if combined) in agar, absence of food, 2-3 hours): 0 min⁻¹
- Effect on locomotion (C. elegans [1]; agonist 6 mM (each, if combined)): Locomotion inhibited
- Pumping rate (min-1) mean ± s.d. (C. elegans [1]; agonist 6 mM (each, if combined) in agar, absence of food, 2-3 hours): 0 min⁻¹

SMILES: Cc1nccn1CC1CCc2c(c3ccccc3n2C)C1=O (stereo not shown) [ondansetron]
- Effect on locomotion (C. elegans [1]; [5]): Nematodes moved normally
- Pumping rate (min-1) mean ± s.d. (C. elegans [1]; [5]): 32 ± 29 min⁻¹
- Effect on locomotion (C. elegans [1]; [6]): Nematodes moved normally
- Pumping rate (min-1) mean ± s.d. (C. elegans [1]; [6]): 0 ± 0 min⁻¹
- Effect on growth and development of neonate H. armigera (Helicoverpa armigera; artificial diet, surface contamination): no discernible effect
- Effect on M. persicae (Myzus persicae; 1 mM, 100 μM, 10 μM in artificial diet, 5 days): no discernible effect
- IC50 [4]: 10 µM

SMILES: NCCc1c[nH]c2ccc(O)cc12 [serotonin, 5-Hydroxytryptamine]
- Effect on locomotion (C. elegans [1]; [11]): Nematodes moved normally
- Pumping rate (min-1) mean ± s.d. (C. elegans [1]; [11]): 129 ± 6 min⁻¹
- Effect on locomotion (C. elegans [1]; [6]): Nematodes moved normally
- Pumping rate (min-1) mean ± s.d. (C. elegans [1]; [6]): 54 ± 45 min⁻¹
- Mean weight of larva (mg) at 7 days (Helicoverpa armigera; [9]): 85 mg
- Mean weight of larva (mg) at 7 days (Helicoverpa armigera; [10]): 85 mg
- activity at 100 µM (Helicoverpa armigera): 116%
- activity at 1000 µM (Helicoverpa armigera): 116%
- EC50 (C. elegans [3]; Caenorhabditis elegans, read-out: EC50 of 5-HT on pharyngeal pumping): ~325 µM
